Literature values as cited in patent US20250205146A1, “GRAPHENE-BASED DRUG DELIVERY DEVICE FOR MUCOSAL AND TRANSMUCOSAL ADMINISTRATION” (SISSA - SCUOLA INTERNAZIONALE SUPERIORE DI STUDI AVANZATI, priority 2022, published 2025).

Details: cyclic voltammetry, depending on the electrochemical system used

Cn1c(=O)c2c(ncn2C)n(C)c1=O [caffeine]
irreversible oxidation peak potential: over 1.4 V
